Measured values reported in patent publication US9828390B2, “Tetrahydropyrrolo[3,4-D][1,3]thiazine-derivative as BACE inhibitor” (Eli Lilly and Company, priority 2014, dated 2017).

Assay: Crystal form stability versus relative humidity
Format: physicochemical

| Crystal form stability (room temperature and relative humidity less than about 15%) | Crystal form stability (room temperature and relative humidity greater than about 15%) | Structure (SMILES) |
| --- | --- | --- |
| stable crystal form |  | COc1cnc(C(=O)Nc2ccc(F)c([C@]34CN(c5ncc(F)cn5)C[C@H]3CSC(N)=N4)c2)cn1 [Example 1A, Crystalline Form 1 N-[3-[(4aR,7aS)-2-Amino-6-(5-fluoropyrimidin-2-yl)-4,4a,5,7-tetrahydropyrrolo[3,4-d][1,3]thiazin-7a-yl]-4-fluoro-phenyl]-5-methoxy-pyrazine-2-carboxamide] |
|  | stable crystal form | COc1cnc(C(=O)Nc2ccc(F)c([C@]34CN(c5ncc(F)cn5)C[C@@H]3CN=C(N)S4)c2)cn1.O [Example 1B, Crystalline Form 2 N-[3-[(4aR,7aS)-2-Amino-6-(5-fluoropyrimidin-2-yl)-4,4a,5,7-tetrahydropyrrolo[3,4-d][1,3]thiazin-7a-yl]-4-fluoro-phenyl]-5-methoxy-pyrazine-2-carboxamide (hydrated)] |
